These results are taken from ChEMBL document CHEMBL1201862, “PubChem BioAssay data set” (2004).

Test systems include SF-295; A549; SK-OV-3; NCI-H460; MDA-MB-231; OVCAR-8; CAKI-1; SNB-19; HCT-116; SN12C; SK-MEL-28; RXF 393; UACC-257; CCRF-CEM; MCF7; SF-268; SF-539; ACHN; K562; EKVX.
Common to all, as to test: DTP human tumour cell line panel, 48 h

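Briefly, cells in 96-well plates were exposed to five compound concentrations for 48 h, and endpoints were estimated by linear interpolation. GI50 marks 50% less growth.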 Activity calls are given as the source filed them. Rule as the data show it: active = GI50 up to about 1.1 µM and inactive = higher.

Broadly, the GI50 is the concentration giving 50% growth inhibition. Take `COc1cc(/C=C2\C[C@H]3[C@@H]4CC=C5C[C@@H](N6CCCC6)CC[C@]5(C)[C@H]4CC[C@]3(C)[C@H]2O)cc(OC)c1OC`: the GI50 in the assay with SF-295 was 13 µM (inactive); in the assay on A549, 10.6 µM (inactive); in the assay with SK-OV-3 it was 18.6 µM (inactive); in the assay on NCI-H460, 3.78 µM (inactive); in the assay on MDA-MB-231 it was 17.5 µM (inactive); in the assay with OVCAR-8, 11 µM (inactive). For the same compound, the GI50 with CAKI-1 was 15.5 µM (inactive); in the assay with SNB-19, 18.8 µM (inactive); in the assay on HCT-116, 13.2 µM (inactive); with SN12C it was 13.2 µM (inactive); in the assay with SK-MEL-28 it was 17.4 µM (inactive); in the assay with RXF 393 it was 7.57 µM (inactive). For the same compound, the GI50 with UACC-257 is 15 µM (inactive); in the assay with CCRF-CEM, 3.72 µM (inactive); in the assay on MCF7 it was 8.71 µM (inactive); in the assay on SF-268, 3.28 µM (inactive); with SF-539, 16.3 µM (inactive); in the assay on ACHN, 15.8 µM (inactive). Moreover, the GI50 with K562 is 13 µM (inactive); in the assay with EKVX, 16.1 µM (inactive).

Regarding `COC1(CC[C@@H](C)COC2OC(CO)C(O)C(O)C2O)O[C@H]2C[C@H]3[C@@H]4CC=C5C[C@@H](OC6OC(CO)C(O)C(OC7OC(CO)C(O)C(O)C7O)C6OC6OC(C)C(O)C(O)C6O)CC[C@]5(C)[C@H]4CC[C@]3(C)[C@H]2[C@@H]1C` (stereo not given in full), the GI50 in the assay on SF-295 is 3.48 µM (inactive); in the assay on A549, 2.68 µM (inactive); in the assay on SK-OV-3, 4.01 µM (inactive); in the assay on NCI-H460 it was 3.4 µM (inactive); with MDA-MB-231, 0.885 µM (active); in the assay with OVCAR-8 it was 8.77 µM (inactive). For the same compound, the GI50 in the assay on CAKI-1 was 6.35 µM (inactive); in the assay with SNB-19, 6.37 µM (inactive); in the assay on HCT-116 it was 6.64 µM (inactive); with SN12C, 10.2 µM (inactive); with SK-MEL-28 it was 5.45 µM (inactive); in the assay on RXF 393 it was 5.71 µM (inactive). The GI50 with UACC-257 was 11 µM (inactive); in the assay with CCRF-CEM, 28.6 µM (inactive); in the assay with MCF7 it was 16 µM (inactive); in the assay with SF-268, 10.2 µM (inactive); in the assay with SF-539 it was 2.74 µM (inactive); in the assay with ACHN, 14.5 µM (inactive). In addition, the GI50 in the assay on K562 was > 20.6 µM (inactive); with EKVX, 15.9 µM (inactive).

As for `CCOC(=O)c1c2ccccc2n2c(N)c(C(N)=O)nnc12`, the GI50 with SF-295 was 33.1 µM (inactive); with A549, > 100 µM (inactive); in the assay on SK-OV-3, 13.9 µM (inactive); with NCI-H460, 50.4 µM (inactive); with MDA-MB-231 it was 18.7 µM (inactive); with OVCAR-8, 16.1 µM (inactive). Besides, the GI50 in the assay on CAKI-1 was 32.8 µM (inactive); in the assay with SNB-19, 19.3 µM (inactive); with HCT-116, 31.1 µM (inactive); with SN12C, > 100 µM (inactive); with SK-MEL-28 it was > 100 µM (inactive); in the assay on RXF 393, 16.1 µM (inactive). Moreover, the GI50 in the assay with UACC-257 was 99.8 µM (inactive); with CCRF-CEM it was > 100 µM (inactive); with MCF7, 17.7 µM (inactive); in the assay with SF-268, 16 µM (inactive); with SF-539, 16.2 µM (inactive); with ACHN, 6.07 µM (inactive). The values for the GI50 with K562 and in the assay with EKVX were > 100 µM (inactive) and 18 µM (inactive), respectively.

Take `O=c1c2c(no[n+]2[O-])c2ccccc2n1-c1ccccc1`: the GI50 in the assay on SF-295 is 14.8 µM (inactive); in the assay on A549, 17.9 µM (inactive); in the assay on SK-OV-3, 14.6 µM (inactive); in the assay with NCI-H460, 8.2 µM (inactive); in the assay with MDA-MB-231, 12.6 µM (inactive); with OVCAR-8 it was 6.18 µM (inactive). The GI50 was 2.65 µM (inactive) in the assay with CAKI-1; 14.5 µM (inactive) in the assay on SNB-19; 2.17 µM (inactive) in the assay with HCT-116; 6.01 µM (inactive) in the assay with SN12C; 5.46 µM (inactive) in the assay with SK-MEL-28; 6.55 µM (inactive) in the assay on RXF 393. For the same compound, the GI50 in the assay with UACC-257 was 13 µM (inactive); with CCRF-CEM, 2.25 µM (inactive); in the assay on MCF7 it was 4.57 µM (inactive); in the assay on SF-268, 8.22 µM (inactive); in the assay on SF-539, 8.26 µM (inactive); in the assay with ACHN it was 11.4 µM (inactive). Moreover, the GI50 was 2.74 µM (inactive) in the assay on K562 and 12.6 µM (inactive) in the assay on EKVX.

For `Cc1[nH]n(-c2nc(O)c(-c3ccccc3)c(=O)[nH]2)c(=O)c1CCO`, the GI50 with SF-295, in the assay with A549, in the assay with SK-OV-3, in the assay on NCI-H460, in the assay on MDA-MB-231 and in the assay on OVCAR-8 was > 100 µM (inactive) throughout. The GI50 in the assay with CAKI-1, in the assay on SNB-19, with HCT-116, in the assay with SN12C, in the assay with SK-MEL-28 and in the assay on RXF 393 was > 100 µM (inactive) each time. For the same compound, the GI50 in the assay on UACC-257, in the assay on CCRF-CEM, in the assay on MCF7, in the assay on SF-268, with SF-539 and with ACHN was > 100 µM (inactive) in each case. In addition, the GI50 in the assay with K562 and in the assay on EKVX was > 100 µM (inactive) in each case.

As to `CCOP(=O)(OCC)C(c1ccccc1)N(C(=O)NC(F)(F)F)c1ccc(C)cc1` (stereo not given), the GI50 with SF-295, in the assay with A549, in the assay with SK-OV-3, in the assay with NCI-H460, in the assay with MDA-MB-231 and in the assay on OVCAR-8 was > 100 µM (inactive) each time. In addition, the GI50 with CAKI-1, in the assay with SNB-19, with HCT-116, in the assay with SN12C, in the assay with SK-MEL-28 and with RXF 393 was > 100 µM (inactive) in each case. Also, the GI50 in the assay with UACC-257, in the assay with CCRF-CEM, in the assay on MCF7, in the assay with SF-268, in the assay with SF-539 and in the assay with ACHN was > 100 µM (inactive) in each case. For the same compound, the GI50 in the assay with K562 and in the assay on EKVX was > 100 µM (inactive) each time.

For `N#C[BH2-][n+]1cn(C2CC(OP(=O)(O)OCC3OC(n4cnc5c(=O)[nH]c(N)nc54)CC3O)C(CO)O2)c2nc(N)[nH]c(=O)c21` (stereo not given), the GI50 with SF-295 is 74.3 µM (inactive); with A549 it was > 100 µM (inactive); in the assay with SK-OV-3 it was > 100 µM (inactive); in the assay on NCI-H460 it was > 100 µM (inactive); in the assay with MDA-MB-231, > 100 µM (inactive); with OVCAR-8 it was > 100 µM (inactive). In addition, the GI50 in the assay with CAKI-1, with SNB-19, with HCT-116, in the assay with SN12C, in the assay with SK-MEL-28 and in the assay on RXF 393 was > 100 µM (inactive) in each case. Besides, the GI50 with UACC-257 is > 100 µM (inactive); in the assay on CCRF-CEM, 37.8 µM (inactive); with MCF7, 62.8 µM (inactive); with SF-268 it was 44.4 µM (inactive); in the assay with SF-539, > 100 µM (inactive); in the assay on ACHN, > 100 µM (inactive). For the same compound, the figures for the GI50 in the assay on K562 and in the assay on EKVX were 55.5 µM (inactive) and > 100 µM (inactive), respectively.
